Results as given in PubChem BioAssay (NCI).
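In this assay, cells in 96-well plates receive the compound at five concentrations for 48 hours. Endpoints are linearly interpolated between the surrounding concentrations. The concentration for full growth arrest is given as TGI.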

Key:
Assay in all cases: NCI tumour cell line growth inhibition, 48 h
[1] = tested on: 786-0 renal
[2] = tested on: A498 renal
[3] = tested on: A549 NSCLC
[4] = tested on: ACHN renal
[5] = tested on: BT-549 breast
[6] = tested on: CAKI-1 renal
[7] = tested on: CCRF-CEM leukemia
[8] = tested on: COLO 205 colon
[9] = tested on: DU-145 prostate
[10] = tested on: EKVX NSCLC
[11] = tested on: HCC-2998 colon
[12] = tested on: HCT-116 colon
[13] = tested on: HCT-15 colon
[14] = tested on: HL-60(TB) leukemia
[15] = tested on: HOP-62 NSCLC
[16] = tested on: HOP-92 NSCLC
[17] = tested on: HS 578T breast
[18] = tested on: HT29 colon
[19] = tested on: IGROV1 ovarian
[20] = tested on: K-562 leukemia
[21] = tested on: KM12 colon
[22] = tested on: LOX IMVI melanoma
[23] = tested on: M14 melanoma
[24] = tested on: MALME-3M melanoma
[25] = tested on: MCF7 breast
[26] = tested on: MDA-MB-231 breast
[27] = tested on: MDA-MB-435
[28] = tested on: MDA-N
[29] = tested on: MOLT-4 leukemia
[30] = tested on: NCI-H226 lung
[31] = tested on: NCI-H23 lung
[32] = tested on: NCI-H460 lung
[33] = tested on: NCI-H522 lung
[34] = tested on: NCI/ADR-RES ovarian
[35] = tested on: OVCAR-3 ovarian
[36] = tested on: OVCAR-4 ovarian
[37] = tested on: OVCAR-5 ovarian
[38] = tested on: OVCAR-8 ovarian
[39] = tested on: PC-3 prostate
[40] = tested on: RPMI-8226 leukemia
[41] = tested on: RXF 393 renal
[42] = tested on: SF-268 CNS
[43] = tested on: SF-295 CNS
[44] = tested on: SF-539 CNS
[45] = tested on: SK-MEL-2 melanoma
[46] = tested on: SK-MEL-28 melanoma
[47] = tested on: SK-MEL-5 melanoma
[48] = tested on: SK-OV-3 ovarian
[49] = tested on: SN12C renal
[50] = tested on: SNB-19 CNS
[51] = tested on: SR leukemia
[52] = tested on: SW-620 colon
[53] = tested on: T-47D breast
[54] = tested on: TK-10 renal
[55] = tested on: U251 CNS
[56] = tested on: UACC-257 melanoma
[57] = tested on: UO-31 renal
[58] = tested on: DLD-1 colon
[59] = tested on: DMS 114 small cell lung
[60] = tested on: DMS 273 small cell lung
[61] = tested on: HOP-18 NSCLC
[62] = tested on: KM20L2 colon
[63] = tested on: LXFL 529 NSCLC
[64] = tested on: M19-MEL melanoma
[65] = tested on: SNB-75 CNS
[66] = tested on: SNB-78 CNS
[67] = tested on: UACC-62 melanoma
[68] = tested on: XF 498 CNS

`COC(=O)c1c(O)ccc2c1C1(Cc3ccccc3C1=O)C(O)O2` (stereo not given) showed a TGI [1] of 30.2 µM, a TGI [2] greater than 100 µM and a TGI [3] of 69.9 µM. It also gave a TGI [4] of 55.7 µM, a TGI [5] of 37 µM and a TGI [6] of 61.8 µM. The TGI [7] was 11.7 µM, the TGI [8] was greater than 100 µM and the TGI [9] was greater than 100 µM. The TGI [10] was 68.5 µM, the TGI [11] was 69.9 µM and the TGI [12] was 32.6 µM. The TGI [13] was 54.2 µM, the TGI [14] was 40.4 µM and the TGI [15] was 28.7 µM. For the same compound, the TGI [16] was 60.2 µM, the TGI [17] was 61 µM and the TGI [18] was greater than 100 µM. It also gave a TGI [19] of 36.3 µM, a TGI [20] greater than 100 µM and a TGI [21] of 69.1 µM. For the same compound, the TGI [22] was greater than 100 µM, the TGI [23] was 52.2 µM and the TGI [24] was 71.4 µM. For the same compound, the TGI [25] was greater than 100 µM, the TGI [26] was 52.1 µM and the TGI [27] was 31.1 µM. For the same compound, the TGI [28] was 28.7 µM, the TGI [29] was 21.5 µM and the TGI [30] was 35.5 µM. The TGI [31] was greater than 100 µM, the TGI [32] was greater than 100 µM and the TGI [33] was 18.1 µM. The TGI [34] was greater than 100 µM, the TGI [35] was 43.9 µM and the TGI [36] was 35.8 µM. It also gave a TGI [37] of 51.7 µM, a TGI [38] of 36.7 µM and a TGI [39] of 92.2 µM. For the same compound, the TGI [40] was 17.3 µM, the TGI [41] was greater than 100 µM and the TGI [42] was 51.6 µM. The TGI [43] was greater than 100 µM, the TGI [44] was 55.7 µM and the TGI [45] was greater than 100 µM. It also gave a TGI [46] greater than 100 µM, a TGI [47] greater than 100 µM and a TGI [48] of 57.8 µM. It also gave a TGI [49] of 86.2 µM, a TGI [50] greater than 100 µM and a TGI [51] of 25.3 µM. It also gave a TGI [52] greater than 100 µM, a TGI [53] of 45.3 µM and a TGI [54] of 52.6 µM. It also gave a TGI [55] of 61.4 µM, a TGI [56] greater than 100 µM and a TGI [57] of 85 µM.
`O=C(O)/C(Cl)=C(\Cl)C(=O)Nc1ccc(Cl)c(Cl)c1Cl` showed a TGI [1] of 32.1 µM, a TGI [2] of 95.6 µM and a TGI [3] of 35.2 µM. It also gave a TGI [4] of 32 µM, a TGI [6] of 32 µM and a TGI [7] greater than 100 µM. For the same compound, the TGI [8] was 34.8 µM, the TGI [58] was 47.3 µM and the TGI [59] was 35.1 µM. The TGI [60] was 36.2 µM, the TGI [10] was 37.1 µM and the TGI [11] was 35.1 µM. It also gave a TGI [12] of 28.1 µM, a TGI [13] of 34.8 µM and a TGI [14] of 45.4 µM. It also gave a TGI [61] of 31 µM, a TGI [15] of 62.3 µM and a TGI [16] of 31.1 µM. It also gave a TGI [18] of 39.9 µM, a TGI [19] of 38.7 µM and a TGI [20] of 83.1 µM. It also gave a TGI [21] of 36.6 µM, a TGI [62] of 44.7 µM and a TGI [22] of 31.2 µM. The TGI [63] was 37.9 µM, the TGI [23] was 32.5 µM and the TGI [64] was 30.8 µM. It also gave a TGI [24] of 34.9 µM, a TGI [29] of 59.7 µM and a TGI [30] of 35.5 µM. For the same compound, the TGI [31] was 33.2 µM, the TGI [32] was 45.9 µM and the TGI [33] was 23.7 µM. It also gave a TGI [35] of 35.5 µM, a TGI [36] of 33.6 µM and a TGI [37] of 32.1 µM. It also gave a TGI [40] of 88.3 µM, a TGI [42] of 42.8 µM and a TGI [43] of 33 µM. The TGI [44] was 35.6 µM, the TGI [45] was 33.9 µM and the TGI [46] was 42.7 µM. The TGI [47] was 68.9 µM, the TGI [48] was 35.2 µM and the TGI [49] was 36.7 µM. It also gave a TGI [50] of 30.2 µM, a TGI [65] of 34.8 µM and a TGI [66] of 84.7 µM. For the same compound, the TGI [51] was 70.1 µM, the TGI [52] was 35.3 µM and the TGI [54] was 30.9 µM. For the same compound, the TGI [55] was 34.3 µM, the TGI [56] was 36.2 µM and the TGI [67] was 26.1 µM. The TGI [57] was 30 µM.
Work on `COCCOCOc1ccc(OCOCCOC)c2c1C(=O)c1ccccc1C2=O` yielded a TGI [1] greater than 100 µM, a TGI [2] greater than 100 µM and a TGI [3] greater than 100 µM. It also gave a TGI [4] greater than 100 µM, a TGI [6] greater than 93 µM and a TGI [7] greater than 100 µM. For the same compound, the TGI [8] was greater than 100 µM, the TGI [58] was greater than 100 µM and the TGI [59] was 37.3 µM. It also gave a TGI [60] greater than 100 µM, a TGI [10] greater than 100 µM and a TGI [11] greater than 100 µM. For the same compound, the TGI [12] was greater than 85.4 µM, the TGI [13] was greater than 100 µM and the TGI [14] was greater than 100 µM. For the same compound, the TGI [61] was greater than 100 µM, the TGI [15] was greater than 100 µM and the TGI [16] was greater than 100 µM. For the same compound, the TGI [18] was greater than 100 µM, the TGI [19] was greater than 100 µM and the TGI [20] was greater than 100 µM. For the same compound, the TGI [21] was greater than 100 µM, the TGI [62] was greater than 100 µM and the TGI [22] was greater than 100 µM. For the same compound, the TGI [23] was greater than 100 µM, the TGI [64] was 39 µM and the TGI [24] was greater than 100 µM. The TGI [29] was greater than 100 µM, the TGI [30] was greater than 100 µM and the TGI [31] was greater than 100 µM. For the same compound, the TGI [32] was greater than 100 µM, the TGI [35] was greater than 100 µM and the TGI [36] was greater than 100 µM. It also gave a TGI [37] greater than 100 µM, a TGI [38] greater than 100 µM and a TGI [41] greater than 100 µM. The TGI [42] was greater than 100 µM, the TGI [43] was greater than 100 µM and the TGI [44] was greater than 100 µM. For the same compound, the TGI [45] was greater than 100 µM, the TGI [46] was greater than 100 µM and the TGI [47] was greater than 100 µM. For the same compound, the TGI [48] was greater than 100 µM, the TGI [49] was greater than 100 µM and the TGI [50] was greater than 100 µM. The TGI [65] was greater than 100 µM, the TGI [66] was greater than 100 µM and the TGI [52] was greater than 100 µM. The TGI [54] was greater than 100 µM, the TGI [55] was greater than 100 µM and the TGI [56] was greater than 88.9 µM. It also gave a TGI [67] greater than 100 µM, a TGI [57] greater than 100 µM and a TGI [68] greater than 100 µM.
`Cc1cc(O)c(C(C)C)cc1C1(c2cc(C(C)C)c(O)cc2C)OC(=O)c2ccccc21` was tested, and the TGI [1] was 5.52 µM, the TGI [2] was 7.1 µM and the TGI [3] was 12.8 µM. For the same compound, the TGI [4] was 8.99 µM, the TGI [5] was 5.53 µM and the TGI [6] was 18.4 µM. The TGI [7] was 3.1 µM, the TGI [8] was 4.96 µM and the TGI [9] was 4.41 µM. The TGI [10] was 9.25 µM, the TGI [11] was 3.48 µM and the TGI [12] was 3.09 µM. It also gave a TGI [13] of 4.93 µM, a TGI [14] of 1.24 µM and a TGI [15] of 8.75 µM. For the same compound, the TGI [16] was 7.78 µM, the TGI [17] was 6.88 µM and the TGI [18] was 5.84 µM. The TGI [19] was 8.89 µM, the TGI [20] was 3.25 µM and the TGI [21] was 3.33 µM. The TGI [22] was 3.53 µM, the TGI [23] was 3.15 µM and the TGI [24] was 5.21 µM. The TGI [25] was 3.6 µM, the TGI [26] was 4.54 µM and the TGI [27] was 3.01 µM. The TGI [28] was 3.11 µM, the TGI [29] was 3.38 µM and the TGI [30] was 6.3 µM. For the same compound, the TGI [31] was 5.13 µM, the TGI [32] was 3.99 µM and the TGI [33] was 4.48 µM. The TGI [34] was 12 µM, the TGI [35] was 4.85 µM and the TGI [36] was 5.26 µM. For the same compound, the TGI [37] was 5.92 µM, the TGI [38] was 9.14 µM and the TGI [39] was 4.95 µM. The TGI [40] was 3.17 µM, the TGI [41] was 3.02 µM and the TGI [42] was 4.83 µM. The TGI [43] was 3.69 µM, the TGI [44] was 3.72 µM and the TGI [45] was 3.28 µM. For the same compound, the TGI [46] was 3.07 µM, the TGI [47] was 2.99 µM and the TGI [48] was greater than 33.3 µM. It also gave a TGI [49] of 4.35 µM, a TGI [50] greater than 35.1 µM and a TGI [65] of 6.16 µM. For the same compound, the TGI [51] was 4.02 µM, the TGI [52] was 4.57 µM and the TGI [53] was 6.44 µM. For the same compound, the TGI [54] was 11.1 µM, the TGI [55] was 3.9 µM and the TGI [56] was 3.6 µM. It also gave a TGI [67] of 2.87 µM and a TGI [57] of 7.04 µM.
